ChEMBL document CHEMBL1201862, “PubChem BioAssay data set” (2004)
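Tested at 5 concentrations; 48 h exposure; 96-well plates; endpoints linearly interpolated, else capped at highest concentration. GI50 = concentration required for 50% inhibition of growth.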 Calls of active or inactive are those of the source. No stated cut-off is given here; in the data, active = GI50 up to about 1.1 µM and inactive = higher.

Columns and labels:
Test in all cases: NCI anticancer screen, dose series, 48 h
OVCAR-4 = system: OVCAR-4
HOP-92 = system: HOP-92
SK-MEL-28 = system: SK-MEL-28
SN12C = system: SN12C
COLO 205 = system: COLO 205
NCI/ADR-RES = system: NCI/ADR-RES
EKVX = system: EKVX
K562 = system: K562
MCF7 = system: MCF7
MDA-MB-231 = system: MDA-MB-231
T47D = system: T47D
IGROV-1 = system: IGROV-1
SNB-19 = system: SNB-19
CAKI-1 = system: CAKI-1
HL-60 = system: HL-60
HT-29 = system: HT-29
PC-3 = system: PC-3
SF-268 = system: SF-268
KM12 = system: KM12

| SMILES | GI50 (OVCAR-4) | GI50 (HOP-92) | GI50 (SK-MEL-28) | GI50 (SN12C) | GI50 (COLO 205) | GI50 (NCI/ADR-RES) | GI50 (EKVX) | GI50 (K562) | GI50 (MCF7) | GI50 (MDA-MB-231) | GI50 (T47D) | GI50 (IGROV-1) | GI50 (SNB-19) | GI50 (CAKI-1) | GI50 (HL-60) | GI50 (HT-29) | GI50 (PC-3) | GI50 (SF-268) | GI50 (KM12) |
| --- | --- | --- | --- | --- | --- | --- | --- | --- | --- | --- | --- | --- | --- | --- | --- | --- | --- | --- | --- |
| C#CCOCCCC(=O)O | > 100 µM (inactive) | > 100 µM (inactive) | > 100 µM (inactive) | > 100 µM (inactive) | > 100 µM (inactive) | > 100 µM (inactive) | > 100 µM (inactive) | > 100 µM (inactive) | > 100 µM (inactive) | > 100 µM (inactive) | > 100 µM (inactive) | > 100 µM (inactive) | > 100 µM (inactive) | > 100 µM (inactive) | > 100 µM (inactive) | > 100 µM (inactive) | > 100 µM (inactive) | – | – |
| COc1ccccc1NC(=S)N/N=C1\C(=O)Nc2ccccc21 | > 100 µM (inactive) | > 100 µM (inactive) | 3.29 µM (inactive) | > 100 µM (inactive) | > 100 µM (inactive) | > 100 µM (inactive) | 86.3 µM (inactive) | > 100 µM (inactive) | 42.6 µM (inactive) | > 100 µM (inactive) | > 100 µM (inactive) | > 100 µM (inactive) | > 100 µM (inactive) | > 100 µM (inactive) | – | > 100 µM (inactive) | > 100 µM (inactive) | 0.583 µM (active) | > 100 µM (inactive) |
| CO/N=C1\CC(NC(=O)CNC(=O)OC(C)(C)C)c2ccsc21 (configuration not stated) | > 100 µM (inactive) | > 100 µM (inactive) | > 100 µM (inactive) | > 100 µM (inactive) | > 100 µM (inactive) | > 100 µM (inactive) | > 100 µM (inactive) | – | > 100 µM (inactive) | > 100 µM (inactive) | > 100 µM (inactive) | > 100 µM (inactive) | – | > 100 µM (inactive) | > 100 µM (inactive) | > 100 µM (inactive) | > 100 µM (inactive) | > 100 µM (inactive) | – |
| CC(=O)OCC1OC(n2cnc3nc(Br)[nH]c(=O)c32)C(OC(C)=O)C1OC(C)=O (configuration not stated) | > 100 µM (inactive) | > 100 µM (inactive) | – | > 100 µM (inactive) | > 100 µM (inactive) | > 100 µM (inactive) | > 100 µM (inactive) | > 100 µM (inactive) | 62.4 µM (inactive) | > 100 µM (inactive) | > 100 µM (inactive) | > 100 µM (inactive) | > 100 µM (inactive) | > 100 µM (inactive) | > 100 µM (inactive) | > 100 µM (inactive) | > 100 µM (inactive) | > 100 µM (inactive) | > 100 µM (inactive) |
| COc1cc(S(=O)(=O)Nc2nc(-c3ccc(N4C(=O)C(CC(=O)O)SC4c4cccs4)cc3)cs2)ccc1Cl (configuration not stated) | 26.7 µM (inactive) | 30.9 µM (inactive) | 70.1 µM (inactive) | 30.3 µM (inactive) | > 100 µM (inactive) | 29.3 µM (inactive) | – | 39 µM (inactive) | 25 µM (inactive) | 81.1 µM (inactive) | 25.9 µM (inactive) | 27.1 µM (inactive) | 79.6 µM (inactive) | 55.5 µM (inactive) | 31 µM (inactive) | > 100 µM (inactive) | 49.1 µM (inactive) | 21.9 µM (inactive) | 36.9 µM (inactive) |
| O=C1C=C(c2ccccc2)OC1C1Sc2ccccc2NC1=O (configuration not stated) | 18.7 µM (inactive) | 9.68 µM (inactive) | 9.73 µM (inactive) | 9.23 µM (inactive) | 7.73 µM (inactive) | 34.5 µM (inactive) | 14 µM (inactive) | 3.3 µM (inactive) | 3.81 µM (inactive) | 10.9 µM (inactive) | 10.4 µM (inactive) | 11.4 µM (inactive) | 4.08 µM (inactive) | 11.6 µM (inactive) | 3.15 µM (inactive) | 11.5 µM (inactive) | 10.9 µM (inactive) | 7.71 µM (inactive) | 7.76 µM (inactive) |
| CC(=O)O[C@H]1C[C@H]2C(=S)Nc3ccccc3C(=S)N2C1 | > 100 µM (inactive) | > 100 µM (inactive) | > 100 µM (inactive) | > 100 µM (inactive) | > 100 µM (inactive) | > 100 µM (inactive) | > 100 µM (inactive) | > 100 µM (inactive) | > 100 µM (inactive) | > 100 µM (inactive) | > 100 µM (inactive) | > 100 µM (inactive) | > 100 µM (inactive) | > 100 µM (inactive) | – | > 100 µM (inactive) | > 100 µM (inactive) | > 100 µM (inactive) | > 100 µM (inactive) |
| C=C1c2[nH]c3ccccc3c2C2C(CC)C1CCN2C (configuration not stated) | 53.6 µM (inactive) | 25.6 µM (inactive) | 29.5 µM (inactive) | 98.4 µM (inactive) | 16.7 µM (inactive) | 42.2 µM (inactive) | 28.4 µM (inactive) | – | 56.1 µM (inactive) | 48.4 µM (inactive) | > 100 µM (inactive) | 15.2 µM (inactive) | > 100 µM (inactive) | > 100 µM (inactive) | 49.1 µM (inactive) | 27.8 µM (inactive) | 32.8 µM (inactive) | > 100 µM (inactive) | > 100 µM (inactive) |
